Data as given in PubChem BioAssay (NCI).
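Method: 48-hour compound exposure of cells in 96-well plates, five concentrations, linear interpolation of endpoints. TGI: concentration producing complete growth inhibition.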

Assays:
Assay in all cases: growth of human tumour cells (NCI), 48 h
786-0 renal = tested on: 786-0 renal
A498 renal = tested on: A498 renal
A549 NSCLC = tested on: A549 NSCLC
ACHN renal = tested on: ACHN renal
BT-549 breast = tested on: BT-549 breast
CAKI-1 renal = tested on: CAKI-1 renal
COLO 205 colon = tested on: COLO 205 colon
DU-145 prostate = tested on: DU-145 prostate
EKVX NSCLC = tested on: EKVX NSCLC
HCC-2998 colon = tested on: HCC-2998 colon
HCT-116 colon = tested on: HCT-116 colon
HCT-15 colon = tested on: HCT-15 colon
HOP-62 NSCLC = tested on: HOP-62 NSCLC
HOP-92 NSCLC = tested on: HOP-92 NSCLC
HS 578T breast = tested on: HS 578T breast
HT29 colon = tested on: HT29 colon
IGROV1 ovarian = tested on: IGROV1 ovarian
K-562 leukemia = tested on: K-562 leukemia
KM12 colon = tested on: KM12 colon
LOX IMVI melanoma = tested on: LOX IMVI melanoma
M14 melanoma = tested on: M14 melanoma
MALME-3M melanoma = tested on: MALME-3M melanoma
MCF7 breast = tested on: MCF7 breast
MDA-MB-231 breast = tested on: MDA-MB-231 breast
MDA-MB-435 = tested on: MDA-MB-435
MDA-N = tested on: MDA-N
MOLT-4 leukemia = tested on: MOLT-4 leukemia
NCI-H226 lung = tested on: NCI-H226 lung
NCI-H23 lung = tested on: NCI-H23 lung
NCI-H460 lung = tested on: NCI-H460 lung
NCI-H522 lung = tested on: NCI-H522 lung
NCI/ADR-RES ovarian = tested on: NCI/ADR-RES ovarian
OVCAR-3 ovarian = tested on: OVCAR-3 ovarian
OVCAR-4 ovarian = tested on: OVCAR-4 ovarian
OVCAR-5 ovarian = tested on: OVCAR-5 ovarian
OVCAR-8 ovarian = tested on: OVCAR-8 ovarian
PC-3 prostate = tested on: PC-3 prostate
RXF 393 renal = tested on: RXF 393 renal
SF-268 CNS = tested on: SF-268 CNS
SF-295 CNS = tested on: SF-295 CNS
SF-539 CNS = tested on: SF-539 CNS
SK-MEL-28 melanoma = tested on: SK-MEL-28 melanoma
SK-MEL-5 melanoma = tested on: SK-MEL-5 melanoma
SK-OV-3 ovarian = tested on: SK-OV-3 ovarian
SN12C renal = tested on: SN12C renal
SNB-19 CNS = tested on: SNB-19 CNS
SR leukemia = tested on: SR leukemia
SW-620 colon = tested on: SW-620 colon
T-47D breast = tested on: T-47D breast
TK-10 renal = tested on: TK-10 renal
U251 CNS = tested on: U251 CNS
UACC-257 melanoma = tested on: UACC-257 melanoma
UACC-62 melanoma = tested on: UACC-62 melanoma
UO-31 renal = tested on: UO-31 renal
CCRF-CEM leukemia = tested on: CCRF-CEM leukemia
HL-60(TB) leukemia = tested on: HL-60(TB) leukemia
RPMI-8226 leukemia = tested on: RPMI-8226 leukemia
SNB-75 CNS = tested on: SNB-75 CNS

c1ccc2c(c1)Sc1ccccc1N2CCCN1c2ccccc2Sc2ccccc21
TGI (786-0 renal): 45.2 µM
TGI (A498 renal): > 100 µM
TGI (A549 NSCLC): > 100 µM
TGI (ACHN renal): > 100 µM
TGI (BT-549 breast): > 100 µM
TGI (CAKI-1 renal): > 100 µM
TGI (COLO 205 colon): > 100 µM
TGI (DU-145 prostate): > 100 µM
TGI (EKVX NSCLC): > 100 µM
TGI (HCC-2998 colon): > 100 µM
TGI (HCT-116 colon): > 100 µM
TGI (HCT-15 colon): > 100 µM
TGI (HOP-62 NSCLC): > 100 µM
TGI (HOP-92 NSCLC): > 100 µM
TGI (HS 578T breast): > 100 µM
TGI (HT29 colon): > 100 µM
TGI (IGROV1 ovarian): > 100 µM
TGI (K-562 leukemia): > 100 µM
TGI (KM12 colon): > 100 µM
TGI (LOX IMVI melanoma): > 100 µM
TGI (M14 melanoma): > 100 µM
TGI (MALME-3M melanoma): > 100 µM
TGI (MCF7 breast): > 100 µM
TGI (MDA-MB-231 breast): > 100 µM
TGI (MDA-MB-435): > 100 µM
TGI (MDA-N): > 100 µM
TGI (MOLT-4 leukemia): > 100 µM
TGI (NCI-H226 lung): > 100 µM
TGI (NCI-H23 lung): > 100 µM
TGI (NCI-H460 lung): > 100 µM
TGI (NCI-H522 lung): > 100 µM
TGI (NCI/ADR-RES ovarian): > 100 µM
TGI (OVCAR-3 ovarian): > 100 µM
TGI (OVCAR-4 ovarian): > 100 µM
TGI (OVCAR-5 ovarian): > 100 µM
TGI (OVCAR-8 ovarian): > 100 µM
TGI (PC-3 prostate): > 100 µM
TGI (RXF 393 renal): > 100 µM
TGI (SF-268 CNS): > 100 µM
TGI (SF-295 CNS): > 100 µM
TGI (SF-539 CNS): > 100 µM
TGI (SK-MEL-28 melanoma): > 100 µM
TGI (SK-MEL-5 melanoma): > 100 µM
TGI (SK-OV-3 ovarian): > 100 µM
TGI (SN12C renal): > 100 µM
TGI (SNB-19 CNS): > 100 µM
TGI (SR leukemia): > 100 µM
TGI (SW-620 colon): > 100 µM
TGI (T-47D breast): > 100 µM
TGI (TK-10 renal): > 100 µM
TGI (U251 CNS): > 100 µM
TGI (UACC-257 melanoma): > 100 µM
TGI (UACC-62 melanoma): > 100 µM
TGI (UO-31 renal): > 100 µM

COC(=O)C1=C(O)C(C(=O)OC)[C@]2(O)[C@H](C(=O)OC)[C@H]1C[C@@H](c1ccc(O)cc1)[C@H]2C(=O)OC (stereo partly specified)
TGI (786-0 renal): > 100 µM
TGI (A498 renal): > 100 µM
TGI (A549 NSCLC): > 100 µM
TGI (ACHN renal): > 100 µM
TGI (BT-549 breast): 91.5 µM
TGI (CAKI-1 renal): > 100 µM
TGI (CCRF-CEM leukemia): > 100 µM
TGI (COLO 205 colon): > 100 µM
TGI (DU-145 prostate): 71.6 µM
TGI (EKVX NSCLC): > 100 µM
TGI (HCC-2998 colon): 46.5 µM
TGI (HCT-116 colon): 94.3 µM
TGI (HCT-15 colon): > 100 µM
TGI (HL-60(TB) leukemia): 95.1 µM
TGI (HOP-62 NSCLC): 55.4 µM
TGI (HOP-92 NSCLC): > 100 µM
TGI (HS 578T breast): 87.3 µM
TGI (HT29 colon): > 100 µM
TGI (IGROV1 ovarian): > 100 µM
TGI (K-562 leukemia): > 100 µM
TGI (KM12 colon): 49.9 µM
TGI (LOX IMVI melanoma): > 100 µM
TGI (M14 melanoma): > 100 µM
TGI (MALME-3M melanoma): > 100 µM
TGI (MCF7 breast): > 100 µM
TGI (MDA-MB-231 breast): 60.7 µM
TGI (MDA-MB-435): > 100 µM
TGI (MDA-N): > 100 µM
TGI (MOLT-4 leukemia): > 100 µM
TGI (NCI-H226 lung): > 100 µM
TGI (NCI-H23 lung): > 100 µM
TGI (NCI-H460 lung): 74.5 µM
TGI (NCI/ADR-RES ovarian): > 100 µM
TGI (OVCAR-3 ovarian): 35.6 µM
TGI (OVCAR-4 ovarian): > 100 µM
TGI (OVCAR-5 ovarian): 97.1 µM
TGI (OVCAR-8 ovarian): > 100 µM
TGI (PC-3 prostate): 76.4 µM
TGI (RPMI-8226 leukemia): > 100 µM
TGI (RXF 393 renal): 45.1 µM
TGI (SF-268 CNS): > 100 µM
TGI (SF-295 CNS): 58.8 µM
TGI (SF-539 CNS): 88.3 µM
TGI (SK-MEL-28 melanoma): > 100 µM
TGI (SK-MEL-5 melanoma): > 100 µM
TGI (SK-OV-3 ovarian): 61.6 µM
TGI (SN12C renal): > 100 µM
TGI (SNB-19 CNS): > 100 µM
TGI (SNB-75 CNS): 81.5 µM
TGI (SR leukemia): > 100 µM
TGI (SW-620 colon): > 100 µM
TGI (T-47D breast): > 100 µM
TGI (TK-10 renal): 86.4 µM
TGI (U251 CNS): 50.1 µM
TGI (UACC-257 melanoma): > 100 µM
TGI (UACC-62 melanoma): > 100 µM
TGI (UO-31 renal): > 100 µM
